Entries after “also recorded” stand apart in the source; their conditions may differ. Read-outs that look alike come from different tables or passages of the source.

Series [1] concerns Erk1 (p44 MAP kinase) and Erk2 (p42 MAP kinase). Kind of series: In-gel kinase assay (myelin basic protein) in HASMC. It is filed as cell-based, human. The settings on record: growth factors 30 min. The protocol:
In-gel kinase assay—Quiescent HASMC were treated with growth factors for 30 min and total cell lysates were prepared as described for Western blotting. In some experiments, HASMC were pretreated for 60 min with 30 μmol/L PD98059, flavopiridol, or vehicle. Equal amounts of proteins (50 μg/lane) were resolved on a polyacrylamide gel that was copolymerized with 350 μg/ml myelin basic protein. The gel was treated with [γ-^32P]ATP and autoradiography was performed as described^19.

For series [2] the test system is unchanged. Kind of series: Western blot of phosphorylated Erk1/Erk2 in HASMC. It is filed as cell-based, human. The settings on record: growth factors 30 min. As to the method: (§1) Western blot analysis—Quiescent HASMC were treated in the presence or absence of growth factors and/or flavopiridol as indicated. Western blot analysis was performed as previously described^18. The primary antibodies were: a polyclonal anti-human cyclin D1 antibody (M-20, Santa Cruz), a monoclonal anti-human proliferating cell nuclear antigen (PCNA) antibody (PC10, Sigma), a phosphorylation-specific p44/42 (Erk1/Erk2) MAP kinase monoclonal antibody (New England Biolabs), and a monoclonal anti-Rb antibody (G3-245, Pharmigen), which recognizes the phosphorylated (pRb) and highly phosphorylated (ppRb) Rb species. For immunoblotting studies, experiments were repeated at least three times.

For series [3], the system named is cyclin D1. Briefly: Western blot of cyclin D1 in HASMC. It is filed as cell-based, human. The settings on record: flavopiridol 75 nmol/L pretreatment, 24 h. The protocol:
as §1
(In general: In western blotting, separated proteins are transferred to a membrane and probed.)

The conditions of series [4]: doses below the toxic threshold, Phase I human studies; cited from earlier work.
Series [5] concerns Cdc2 and Cdk2. Briefly: Cdk activity (histone H1 kinase assay) in HASMC lysates. The following applies: flavopiridol 75 nmol/L pretreatment, 24 h. The class given is cell-based, human.
Procedure: Cdk activity—Quiescent HASMC were treated with agonists and inhibitors for 24 h and total cell lysates were prepared as described for Western blotting. The kinase assay was performed with a histone H1 kinase assay kit (Upstate Biotechnology) following the manufacturer's instructions. In brief, 10 μl of peptide inhibitors for protein kinase C (2 μmol/L) and protein kinase A (2 μmol/L), 100 μg cell lysate, 10 μl assay buffer and 10 μl of a mixture containing 75 μmol/L magnesium chloride, 500 μmol/L ATP and 1 μCi/ml [γ-^32P]ATP were mixed in a microcentrifuge tube. After incubation at 30° C. for 10 min, aliquots were pipetted onto phosphocellulose papers. The papers were washed in 0.75% phosphoric acid, followed by measurement of cpm in a scintillation counter (Beckman). Results are expressed as the mean±SEM for three samples and are representative of three independent experiments.
Series [6] has as its system Human aortic smooth muscle cells (HASMC). Kind of series: Cell proliferation ELISA (BrdU incorporation). The class given is cell-based. The following applies: flavopiridol 75 nmol/L; bFGF- and thrombin-induced. As to the method:
Cell culture—Human aortic smooth muscle cells (HASMC) were obtained from Clonetics and were cultured as previously described^18. Cells were used at passages 5-9. Prior to performing experiments, cells were growth-arrested at 80% confluence for 48 h with medium containing 0.2% fetal bovine serum. Cell proliferation ELISA—Cell proliferation was measured by ELISA (Amersham Life Science). HASMC were grown in gelatin-coated 96-well plates and made quiescent. Cells were treated with 10 ng/ml bFGF, 2 U/ml thrombin, or vehicle for 24 h. Flavopiridol (75 nmol/L) was administered 1 h prior to growth factor treatment. 5-Bromo-2′-deoxyuridine (BrdU) was added to a final concentration of 10 μmol/L during the last 2 h of treatment. BrdU incorporation was measured as described^19. Results are expressed as mean±SEM for 12 samples per condition from two independent experiments.
(ELISA stands for enzyme-linked immunosorbent assay.)

Series [7] shares this test system. Kind of series: Trypan-blue exclusion viability. The class given is cell-based. The following applies: flavopiridol 75 nmol/L, quiescent HASMC. As to the method:
Trypan-blue exclusion—HASMC were grown in 5-cm dishes at low confluence and growth-arrested as described. Cells were treated with flavopiridol (75 nmol/L) or tumor necrosis factor-[…] (TNF-[…]; 50 ng/ml) for the indicated times. Following the removal of the medium, 0.4% trypan blue in phosphate-buffered saline was added to the dishes. After 5 min, the cells in the dishes were counted under the microscope. Blue cells were counted as nonviable cells.

For series [8] the following is noted: in vivo; cited from earlier work.
For series [9], the system named is Rb. Kind of series: Western blot of Rb phosphorylation in HASMC. The class given is cell-based, human. The following applies: flavopiridol 75 nmol/L, 24 h. As to the method: as §1
Series [10] deals with Human aortic smooth muscle cells (HASMC). Briefly: Cell counts of growth-arrested HASMC. The class given is cell-based. The settings on record: bFGF 10 ng/ml, flavopiridol 75 nmol/L, three days; bFGF alone 3-fold increase. The protocol: Cell culture—Human aortic smooth muscle cells (HASMC) were obtained from Clonetics and were cultured as previously described^18. Cells were used at passages 5-9. Prior to performing experiments, cells were growth-arrested at 80% confluence for 48 h with medium containing 0.2% fetal bovine serum. Cell counts—Growth-arrested HASMC grown to 50% confluence in 6-well plates were treated with or without flavopiridol (75 nmol/L) or bFGF (10 ng/ml). At intervals after treatment, cells were trypsinized and cell numbers determined using a hemocytometer.

Series [11] relates to rat carotid artery neointimal formation. The settings on record: for PCNA-positive nuclei in the neointima: 5 mg/kg orally. The protocol:
Rat carotid injury model—Injury to the rat carotid artery was performed essentially as described^2. Adult male Sprague-Dawley rats (400-500 g, Zivic-Miller) were anesthetized with an intraperitoneal injection of ketamine ([…]) and xylazine (4 mg/kg). The left internal carotid was then cannulated with a 2F embolectomy catheter. The balloon was inflated with saline and withdrawn across the artery three times to produce a distending and denuding injury. The right carotid artery was uninjured and served as a control of injury for each animal. Immediately following recovery from anesthesia and for four additional days thereafter, rats were administered flavopiridol (5 mg/kg in water) or water by gavage in a blinded manner. […] At specified time points after carotid injury, rats were anesthetized as above and perfusion-fixed systemically with 4% paraformaldehyde in phosphate-buffered saline. Right and left carotid arteries were removed and distended by injection of 4% paraformaldehyde through the lumen, after which they were dehydrated and stored in 70% ethanol at 4° C. Immunohistochemistry was performed as previously described^18, using the monoclonal PCNA antibody and a polyclonal anti-human Cdk2 antibody (M2-G, Santa Cruz).
Image analysis—The extreme distal and proximal regions of each artery (approx. 500 μm) were removed. Ten intermediate cross-sections (8 μm each) taken 500 μm apart were analyzed from each artery. Slides were fixed and stained with hematoxylin and eosin as previously described^18. Using a Nikon Diaphot 300 microscope and a 4× objective, each cross-section was captured as a digital image using a Hamamatsu C5985 video camera and TCPro 2.41 (Coreco, Inc.). Medial and neointimal areas were determined using NIH Image software. Medial and neointimal boundaries were determined by one slide reviewer (A.M.) and verified in a blinded fashion by a second reviewer (C.P.). Lesion size was expressed as the neointima/media ratio. Results for each group were expressed as the mean±SEM.

Series [12] deals with PCNA. Briefly: Western blot of PCNA in HASMC. The class given is cell-based, human. The following applies: flavopiridol 75 nmol/L pretreatment, 24 h. The protocol:
as §1

In series [13] the test system is neointimal formation. The following applies: instilled into the carotid artery at the time of injury; cited from earlier work.

As to `COc1cccc(-c2cc(=O)c3ccccc3o2)c1N` [PD98059, reference compound], the “thrombin- and bFGF-induced Erk1 and Erk2 activity (in-gel kinase)” value in series [1] (PD98059 30 μmol/L pretreatment 60 min) is reported as “inhibitable”. Also, the “thrombin- and bFGF-induced phosphorylation of Erk1 and Erk2” value in series [2] (PD98059 30 μmol/L) was “blocked”.

With `CN1CC[C@H](c2c(O)cc(O)c3c(=O)cc(-c4ccccc4Cl)oc23)[C@H](O)C1` [flavopiridol, (−)-cis, -5,7-dihydroxy-2-(2-chlorophenyl)-8-[4-(3-hydroxy-1-methyl)piperidinyl]-4H-benzopyran-4-one], the “bFGF- and thrombin-induced upregulation of cyclin D1 protein” value in [3] is listed as “completely blocked”. Further, the “thrombin- and bFGF-induced Erk1 and Erk2 activity (in-gel kinase)” value in [1] (flavopiridol 75 nmol/L) is reported as “no effect”. The median serum concentrations in series [4] is listed as 425 nmol/L. Further, the “bFGF- and thrombin-induced increases in histone H1 kinase (cyclin-dependent kinase) activity” value in series [5] was “totally blocked; also recorded: inhibited”. Further, the “inhibition of SMC proliferation” value in series [6] is recorded as “near complete inhibition”. The “HASMC viability (trypan blue exclusion)” value is reported as “does not decrease HASMC viability” in [7] and “no effect” in [7] (listed as Flavopiridol). Besides, the biological half-life in series [8] is listed as 2.5 hrs. Moreover, in series [9], the “thrombin- and bFGF-induced hyperphosphorylation of Rb” value is given as “inhibited; also recorded: blocked”. In addition, in series [10], the “bFGF-induced increase in cell number” value is recorded as “efficiently blocked”. Further, the “Cdk2-positive cells in the neointima vs untreated rats” value in series [11] (7 and 14 days after injury, 5 mg/kg by gavage) was “much less common”. Moreover, the “reduction of neointimal area” value was 35% in series [11] (7 days after injury, 5 mg/kg by gavage) and 39% in [11] (14 days after injury, 5 mg/kg by gavage). Besides, the “PCNA-positive nuclei in the neointima” value came to 11.8±1.5% in series [11] (7 days after injury, untreated 31.1±7.2%) and 10.4±2.0% in [11] (14 days after injury). The “signs of toxicity related to drug administration” value in series [11] (rat, in vivo, 5 mg/kg) was “no overt signs of toxicity”. Also, the “growth factor-induced increased expression of PCNA” value in series [12] was “blocked”. The “thrombin- and bFGF-induced phosphorylation of Erk1 and Erk2” value in series [2] (flavopiridol 75 nmol/L) is reported as “no effect”.

`COc1ccc(CNc2nc(N(CCO)CCO)nc3c2ncn3C(C)C)cc1` [CVT-313]: the neointimal formation result in series [13] is “can also inhibit neointimal formation”.

Source of the values: patent publication US6399633B1, “Use of 4-H-1-benzopryan-4-one derivatives as inhibitors of smooth muscle cell proliferation” (priority 1999, dated 2002).
